Laboratory results published in patent US4468511A, “C-20- And C-23-Modified macrolide derivatives” (Eli Lilly and Company, priority 1983, dated 1984).
≈ marks a conversion by molar mass, not a printed value. Read-outs that look alike come from different tables or passages of the source.

Experiments:
[1] = test system: Haemophilus influenzae 76; test: MIC, standard agar-dilution assay; type: cell-based; conditions: Haemophilus influenzae, 76
Description: (§1) The MIC's in Table II were determined by standard agar-dilution assays. The MIC's in Table III were obtained using a conventional broth-dilution microtiter test.

[2] = test system: Haemophilus influenzae C.L.; test: MIC, standard agar-dilution assay; type: cell-based; conditions: agar-dilution; Haemophilus influenzae C.L., Ampicillin-sensitive strain; read-out: MIC
Description: as §1

[3] = test system: Staphylococcus aureus X400; test: MIC, standard agar-dilution assay; type: cell-based; conditions: Staphylococcus aureus, X400
Description: as §1

[4] = test system: Staphylococcus epidermidis EPI2; test: MIC, standard agar-dilution assay; type: cell-based; conditions: Staphylococcus epidermidis, EPI2
Description: as §1

[5] = test system: Staphylococcus epidermidis EPI1; test: microbe, parasite or virus in culture; type: cell-based; conditions: Staphylococcus epidermidis, EPI1
Description: as §1

[6] = test system: Staphylococcus aureus S13E; test: microbe, parasite or virus in culture; type: cell-based
Description: as §1

Pasteurella multocida = test: Pasteurella infection in one-day old chicks; type: in vivo; conditions: subcutaneous, 30 mg/kg × 2, 1 and 4 hours post-challenge
Description: Certain of the formula 1 compounds of this invention have also shown in vivo activity against infections induced by gram-negative bacteria. Table V summarizes the results of tests in which illustrative compounds were evaluated against a Pasteurella infection in one-day old chicks. The compounds were administered parenterally after challenge of the chicks with Pasteurella multocida (0.1 ml of a 10^-4 dilution of a twenty-hour tryptose broth culture of an avian P. multocida given subcutaneously). In these tests, unless indicated otherwise, all non-medicated infected chicks died within 24 hours of Pasteurella challenge. In the tests summarized in Table V, the compounds were administered by subcutaneous injection at a dosage of 30 mg/kg, 1 and 4 hours post-challenge of the chicks with P. multocida.

Escherichia coli TEM = test: MIC, standard agar-dilution assay; type: cell-based; conditions: Escherichia coli
Summary of the method: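 Antibacterial activity toward the gram-negative organism Escherichia coli was assessed by conventional agar dilution. The MIC, reported in ug/mL, is the minimum compound concentration on agar that prevents growth.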

[7] = test system: Streptococcus pyogenes 9960; test: MIC, standard agar-dilution assay; type: cell-based; conditions: agar-dilution, Streptococcus 9960, read-out: MIC
Description: (§2) Certain of the derivatives are active against some gram-negative bacteria, such as Pasteurella species. The MIC's in Table II were determined by standard agar-dilution assays. The MIC's in Table III were obtained using a conventional broth-dilution microtiter test.

[8] = test system: Klebsiella pneumoniae X26; test: MIC, standard agar-dilution assay; type: cell-based; conditions: agar-dilution; Klebsiella pneumoniae X26; read-out: MIC
Summary of the method: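 Two formats were used. Broth dilution in microtiter plates served for Pasteurella and Mycoplasma, while agar dilution served for Klebsiella.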

[9] = test system: Klebsiella pneumoniae KAE; test: MIC, standard agar-dilution assay; type: cell-based; conditions: agar-dilution; Klebsiella pneumoniae KAE; read-out: MIC
Summary of the method: (§3)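 Agar plates containing graded compound levels gave the Klebsiella value. Graded broth dilutions in microtiter plates gave the Pasteurella and Mycoplasma values.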

[10] = test system: Streptococcus Group D X66; test: MIC, standard agar-dilution assay; type: cell-based
Description: as §2

[11] = test system: Staphylococcus aureus X1.1; test: MIC, standard agar-dilution assay; type: cell-based; conditions: Staphylococcus aureus, X1.1
Summary of the method: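 A standard agar-dilution assay was used to test compounds against the Staphylococcus aureus isolate X1.1. Bacterial growth on agar with different compound concentrations was assessed, and the minimum inhibitory concentration was recorded in ug/mL.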

[12] = test system: Streptococcus pyogenes C203; test: MIC, standard agar-dilution assay; type: cell-based; conditions: agar-dilution; Streptococcus pyogenes C203; read-out: MIC
Description: as §2

Escherichia coli EC14 = test: MIC, standard agar-dilution assay; type: cell-based; conditions: agar-dilution; Escherichia coli EC14; read-out: MIC
Description: as §2

[13] = test system: Streptococcus pneumoniae Park I; test: MIC, standard agar-dilution assay; type: cell-based; conditions: Streptococcus pneumoniae
Description: as §2

[14] = test system: Staphylococcus aureus V41; test: MIC, standard agar-dilution assay; type: cell-based; conditions: Staphylococcus aureus, V41
Description: as §2

[15] = test system: Streptococcus pyogenes C203; test: Protection of mice experimentally infected with S. pyogenes C203; type: in vivo
Description: Some of the derivatives of this invention have shown in vivo antimicrobial activity against experimentally-induced infections in laboratory animals. When two doses of test compound were administered to mice experimentally infected with S. pyogenes C203, the activity observed was measured as an ED50 value [effective dose in mg/kg to protect 50% of the test animals: see Warren Wick, et al., J. Bacteriol. 81, 233-235 (1961)].

[16] = test system: Mycoplasma gallisepticum 34159; test: MIC, conventional broth-dilution microtiter test; type: cell-based; conditions: Mycoplasmoides gallisepticum; broth-dilution microtiter; Mycoplasma gallisepticum 34159, Resistant strain; read-out: MIC
Summary of the method: as §3

[17] = test system: Pasteurella multocida 68C; test: MIC, conventional broth-dilution microtiter test; type: cell-based; conditions: Pasteurella multocida, 68C
Summary of the method: as §3

Mycoplasma hyorhinis = test: MIC, conventional broth-dilution microtiter test; type: cell-based; conditions: broth-dilution microtiter; Mycoplasma hyorhinis; read-out: MIC
Summary of the method: as §3

Mycoplasma gallisepticum = test: MIC, conventional broth-dilution microtiter test; type: cell-based; conditions: Mycoplasmoides gallisepticum
Summary of the method: as §3

[18] = test system: Pasteurella multocida 17E; test: MIC, conventional broth-dilution microtiter test; type: cell-based; conditions: Pasteurella multocida, 17E
Summary of the method: as §3

[19] = test system: Pasteurella hemolytica 23C; test: MIC, conventional broth-dilution microtiter test; type: cell-based; conditions: Pasteurella, 23C
Summary of the method: as §3

[20] = test system: Pasteurella multocida 22A; test: MIC, conventional broth-dilution microtiter test; type: cell-based; conditions: Pasteurella multocida, 22A
Summary of the method: as §3

[21] = test system: Pasteurella hemolytica 41D; test: MIC, conventional broth-dilution microtiter test; type: cell-based; conditions: Pasteurella, 41D
Summary of the method: as §3

Staphylococcus aureus = test: MIC, conventional broth-dilution microtiter test; type: cell-based; conditions: broth-dilution microtiter, read-out: MIC
Description: as §2

Mycoplasma synoviae = test: MIC, conventional broth-dilution microtiter test; type: cell-based; conditions: Mycoplasmopsis synoviae; broth-dilution microtiter; Mycoplasma synoviae; read-out: MIC
Summary of the method: as §3

[22] = test system: Mycoplasma gallisepticum 41313; test: MIC, conventional broth-dilution microtiter test; type: cell-based; conditions: Mycoplasmoides gallisepticum; broth-dilution microtiter; Mycoplasma gallisepticum 41313, Resistant strain; read-out: MIC
Summary of the method: as §3

Streptococcus sp. 80 = test: MIC, conventional broth-dilution microtiter test; type: cell-based; conditions: Streptococcus, SP.80
Description: as §2

[23] = test system: Pasteurella multocida 40G; test: MIC, conventional broth-dilution microtiter test; type: cell-based; conditions: Pasteurella multocida, 40G
Summary of the method: as §3

[24] = test system: Pasteurella multocida 60A; test: MIC, conventional broth-dilution microtiter test; type: cell-based; conditions: Pasteurella multocida, 60A
Summary of the method: as §3

[25] = test system: Pasteurella hemolytica 22C; test: MIC, conventional broth-dilution microtiter test; type: cell-based; conditions: Pasteurella, 22C
Summary of the method: as §3

CCC1CC(C)C(=O)C=CC(C)=CC(CN2CCCCCCC2)C(CC)OC(=O)CC(O)C(C)C1OC1OC(C)C(O)C(N(C)C)C1O (stereo not shown) [Compound 43, 23-Octahydroazocin-1-yl-20,23-dideoxy-20-dihydro-OMT]
MIC [1]: 8 µg/mL (≈ 11.8 µM) | MIC [2]: 4 µg/mL (≈ 5.89 µM) | MIC [3]: 1 µg/mL (≈ 1.47 µM) | MIC [4]: 0.25 µg/mL (≈ 0.368 µM) | MIC [5]: 0.5 µg/mL (≈ 0.736 µM) | MIC [6]: 0.5 µg/mL (≈ 0.736 µM) | Number of Deaths/Number Treated (Pasteurella multocida): 8/10 | MIC (Escherichia coli TEM): 16 µg/mL (≈ 23.6 µM) | MIC [7]: 2 µg/mL (≈ 2.95 µM) | MIC [8]: 4 µg/mL (≈ 5.89 µM) | MIC [9]: > 128 µg/mL | MIC [10]: 1 µg/mL (≈ 1.47 µM) | MIC [11]: 0.5 µg/mL (≈ 0.736 µM) | MIC [12]: 0.12 µg/mL (≈ 0.177 µM) | MIC (Escherichia coli EC14): > 128 µg/mL | MIC [13]: 1 µg/mL (≈ 1.47 µM) | MIC [14]: 0.5 µg/mL (≈ 0.736 µM) | ED50 ([15]; C203, po, read-out: ED50 Oral): > 100 mg/kg | ED50 ([15]; C203, sc, mice, subcutaneous, mg/kg × 2, doses given 1 and 4 hours postinfection, read-out: ED50 Subcutaneous): > 12.5 mg/kg | MIC [16]: > 50 µg/mL | MIC [17]: 1.56 µg/mL (≈ 2.3 µM) | MIC (Mycoplasma hyorhinis): 50 µg/mL (≈ 73.6 µM) | MIC (Mycoplasma gallisepticum): 0.78 µg/mL (≈ 1.15 µM) | MIC [18]: 0.78 µg/mL (≈ 1.15 µM) | MIC [19]: 1.56 µg/mL (≈ 2.3 µM) | MIC [20]: 1.56 µg/mL (≈ 2.3 µM) | MIC [21]: 1.56 µg/mL (≈ 2.3 µM) | MIC (Staphylococcus aureus): 0.39 µg/mL (≈ 0.574 µM) | MIC (Mycoplasma synoviae): > 50 µg/mL | MIC [22]: > 50 µg/mL | MIC (Streptococcus sp. 80): 0.78 µg/mL (≈ 1.15 µM) | MIC [23]: 1.56 µg/mL (≈ 2.3 µM) | MIC [24]: 0.78 µg/mL (≈ 1.15 µM) | MIC [25]: 0.78 µg/mL (≈ 1.15 µM)
